Measurements taken from patent US20110129548A1, “Immunopotentiating Compositions Comprising Beta-1, 3/1, 6-D-Glucan and Uses Thereof” (BioAgra, LLC, priority 2006, published 2011).

Columns and labels:
[1] = system: blood cells (WBC, RBC, MON, PMN); experiment: Effect of Vitamin D plus beta-1,3/1,6-D-glucan on blood cells (differential cell count); format: in vivo; settings: rabbits, capsules for 9 weeks
Description: To determine the effect of Vitamin D plus beta-1,3/1,6-D-glucan (AGRASTIM®) on the immunocompetence of an animal, rabbits (10 per group) were given capsules of equal weight comprising 10 mg of beta-1,3/1,6-D-glucan (AGRASTIM®), 10 mg of beta-1,3/1,6-D-glucan (AGRASTIM®) plus 50 IU of Vitamin D, or 50 IU Vitamin D for 9 weeks. At the end of 9 weeks the number of white blood cells (WBCs), red blood cells (RBCs), mononuclear cells (MONs), and polymorphonuclear cells (PMNs) were determined by differential cell count.

[2] = system: macrophage cell line RAW264 cells; experiment: Hydrogen peroxide production by RAW264 macrophages; format: cell-based, murine; settings: 1 h; for Fluorescence: control 229.00 ± 4.54
Description: To determine hydrogen peroxide production, macrophage cell line RAW264 cells were plated into 96 well tissue culture plates and cultured until confluent in phenol red-free alpha-minimum essential medium, supplemented with 10% fetal bovine serum. Once confluence was reached, the media was removed, the cells were washed, and substrate and test substances were added. To insure cell number uniformity at confluence, cell numbers were determined in 8 wells; if the number of cells differed by more than 10% the plate was not used. Following an incubation period of exactly 1h the reaction was stopped and resulting fluorescence measured with an ELISA-reader at λmax, excitation=312 nm, λmax, emission=420 nm. Zymosan, the residue from a hot alcoholic extraction of yeast, and curdlan, a linear beta-1,3-D-glucan, were used as positive controls.

[3] = percent with the control set to 100

Substance | increase of PMNs [1] | increase of WBCs above control [1] | increase of the number of RBCs [1] | MON [1, 3] | PMN [1, 3] | RBC [1, 3] | WBC [1, 3] | H2O2-Release ([2]; dose 10 μg/assay) | Fluorescence ([2]; dose 10 μg/assay) | H2O2-Release ([2]; dose 50 μg/assay) | Fluorescence ([2]; dose 50 μg/assay)
Vitamin D | 29% | no effect | neither beta-1,3/1,6-D-glucan alone nor Vitamin D had significant effects | 83% | 129% | 84% | 100% | – | – | – | –
CURDLAN | – | – | – | – | – | – | – | 0.76 nmol | 254.00 ± 1.02 arbitrary units | 1.06 nmol | 345.00 ± 6.48 arbitrary units
